Data reported in ChEMBL document CHEMBL1201862, “PubChem BioAssay data set” (2004).
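Grown in 96-well plates, cells were treated for 48 hours with each compound at five concentrations. Insufficient inhibition: endpoint recorded as highest concentration tested. GI50 is the concentration that inhibits growth by half.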 Calls of active or inactive are those of the source. Cut-off read from the data, not from the text of the source: active = GI50 up to about 1.1 µM and inactive = higher.

Columns and labels:
Test in all cases: growth of human tumour cells (NCI), 48 h
[1] = tested on: SR
[2] = tested on: SK-OV-3
[3] = tested on: HOP-62
[4] = tested on: HOP-92
[5] = tested on: SK-MEL-5
[6] = tested on: UACC-62
[7] = tested on: OVCAR-4
[8] = tested on: NCI-H226
[9] = tested on: MDA-N
[10] = tested on: DU-145
[11] = tested on: HT-29
[12] = tested on: LOX IMVI
[13] = tested on: OVCAR-5
[14] = tested on: BT-549
[15] = tested on: RXF 393
[16] = tested on: SF-539
[17] = tested on: T47D
[18] = tested on: CAKI-1
[19] = tested on: MOLT-4
[20] = tested on: IGROV-1

With `CC(C)c1ccc2c(c1)CCC1C(C)(CN)CCCC21C` (stereo not given) the GI50 [1] was 1.1 µM (active), the GI50 [2] was 2.11 µM (inactive) and the GI50 [3] was 1.75 µM (inactive). The GI50 [4] was 1.55 µM (inactive), the GI50 [5] was 1.8 µM (inactive) and the GI50 [6] was 1.77 µM (inactive). For the same compound, the GI50 [7] was 1.61 µM (inactive), the GI50 [8] was 1.91 µM (inactive) and the GI50 [9] was 1.51 µM (inactive). The GI50 [10] was 1.77 µM (inactive), the GI50 [11] was 0.914 µM (active) and the GI50 [12] was 1.43 µM (inactive). The GI50 [13] was 1.76 µM (inactive), the GI50 [14] was 1.88 µM (inactive) and the GI50 [15] was 1.56 µM (inactive). The GI50 [16] was 1.79 µM (inactive), the GI50 [17] was 1.45 µM (inactive) and the GI50 [18] was 1.41 µM (inactive). The GI50 [19] was 1.32 µM (inactive) and the GI50 [20] was 1.71 µM (inactive).
With `COc1ccc(CCNCCCC2c3ccccc3-c3ccccc32)cc1OC` the GI50 [1] was 8.22 µM (inactive), the GI50 [2] was 18.9 µM (inactive) and the GI50 [3] was 16 µM (inactive). For the same compound, the GI50 [4] was 5.71 µM (inactive), the GI50 [5] was 10.6 µM (inactive) and the GI50 [6] was 16.4 µM (inactive). For the same compound, the GI50 [7] was 15.8 µM (inactive), the GI50 [8] was 15.4 µM (inactive) and the GI50 [9] was 16.7 µM (inactive). The GI50 [10] was 15.5 µM (inactive), the GI50 [11] was 5.06 µM (inactive) and the GI50 [12] was 14.2 µM (inactive). For the same compound, the GI50 [13] was 19.2 µM (inactive), the GI50 [14] was 20.4 µM (inactive) and the GI50 [15] was 11.3 µM (inactive). For the same compound, the GI50 [16] was 16.3 µM (inactive), the GI50 [17] was 17.1 µM (inactive) and the GI50 [18] was 18.4 µM (inactive). For the same compound, the GI50 [19] was 22.6 µM (inactive) and the GI50 [20] was 13.6 µM (inactive).
